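All cell lines were grown in 96-well plates and treated with compound for 48 hours. GI50 marks 50% less growth. TGI is the concentration that stops growth completely.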

What all share (experiment): NCI tumour cell line growth inhibition, 48 h
Experiment [1] concerns HOP-92 NSCLC.
Experiment [2] concerns T-47D breast.
In experiment [3] the test system is MOLT-4 leukemia.
In experiment [4] the test system is NCI-H226 lung.
Experiment [5] has as its system MDA-MB-435.
Experiment [6] has as its system SK-MEL-5 melanoma.
For experiment [7], the system named is UACC-62 melanoma.
The test system of experiment [8] is HS 578T breast.
In experiment [9] the test system is MALME-3M melanoma.
The test system of experiment [10] is NCI/ADR-RES ovarian.

For the compound `COc1ccc2c(ccc3oc([N+](=O)[O-])cc32)c1`, the GI50 in experiment [1] is 0.129 µM; in [2] it was 0.448 µM; in experiment [3], 0.0378 µM; in experiment [4], 0.193 µM; in experiment [5], 0.047 µM; in experiment [6] it was 0.0413 µM. Besides, the GI50 in experiment [7] was 0.158 µM; in experiment [8] it was 0.301 µM; in experiment [9], 0.137 µM; in experiment [10] it was 0.177 µM. Also, the TGI in experiment [1] worked out at 0.407 µM; in experiment [2], 8.05 µM; in experiment [3], 2.69 µM; in experiment [4] it was 0.629 µM; in experiment [5] it was 0.186 µM; in experiment [6] it was 0.142 µM. Besides, the TGI is 0.333 µM in experiment [7], 1.58 µM in [8], 0.314 µM in experiment [9] and 1.05 µM in experiment [10].

In the case of `COC(=O)C1OC(SCCN)C(O)C(O)C1O` (stereo unspecified), the TGI in experiment [1], in experiment [2], in experiment [3], in [4], in [5] and in [6] was > 100 µM each time. Moreover, the TGI in experiment [7], in experiment [8], in [9] and in experiment [10] was > 100 µM in each case.

`NC1=CC(=O)C(=O)c2ccccc21`: the GI50 in [1] is 30 µM; in experiment [2], 14.2 µM; in experiment [3] it was 22.4 µM; in experiment [4] it was 18.8 µM; in [5], 1.84 µM; in [6] it was 14.7 µM. Moreover, the GI50 was 3.33 µM in experiment [7], 12.1 µM in experiment [8], 11 µM in experiment [9] and 12.7 µM in experiment [10]. Also, the TGI in [1] is 93.8 µM; in experiment [2], 46.2 µM; in experiment [3], > 100 µM; in experiment [4], 42.1 µM; in experiment [5], 3.41 µM; in [6], 28 µM. Also, the TGI is 15.7 µM in experiment [7], 40.6 µM in [8], 25.7 µM in experiment [9] and 53.3 µM in experiment [10].

Turning to `C=C(C)[C@@H]1CC[C@]2(COC(=O)c3ccccc3C(=O)O)CC[C@]3(C)[C@H](CC[C@@H]4[C@@]5(C)CC[C@H](OC(=O)c6ccccc6C(=O)O)C(C)(C)[C@@H]5CC[C@]43C)[C@@H]12`, the GI50 in experiment [1] is 19.6 µM; in [2], 19.7 µM; in [3], 56.7 µM; in experiment [4], 32 µM; in experiment [5], 34.6 µM; in [6], 99.2 µM. Moreover, the GI50 is 16.6 µM in experiment [7], 26.4 µM in [8], 60.8 µM in experiment [9] and 67.6 µM in [10]. Further, the TGI in experiment [1] is 64.5 µM; in experiment [2], 75.8 µM; in [3], > 100 µM; in experiment [4], > 100 µM; in [5], > 100 µM; in experiment [6] it was > 100 µM. Further, the TGI in experiment [7], in [8], in experiment [9] and in [10] was > 100 µM each time.

`COc1ccc(/C=N/C2=NNC(C)(c3ccccc3O)N2C(Cc2c[nH]c3ccccc23)C(=O)O)cc1` (stereo unspecified): the GI50 was 1.31 µM in [1]; 1.55 µM in experiment [2]; 3 µM in experiment [3]; 2.16 µM in experiment [4]; 1.7 µM in [5]; 1.66 µM in experiment [6]. Further, the GI50 in experiment [7] was 1.86 µM; in [8], 2.83 µM; in experiment [9] it was 1.9 µM; in experiment [10], 2.76 µM. Moreover, the TGI came out at 5.17 µM in experiment [1]; 12.2 µM in experiment [2]; 13.9 µM in experiment [3]; 10.3 µM in experiment [4]; 5.68 µM in experiment [5]; 3.09 µM in experiment [6]. The TGI in experiment [7] is 5.53 µM; in [8], 21.7 µM; in experiment [9] it was 6.49 µM; in [10] it was 14 µM.

For `COc1cc2c3c(n(CCCN=[N+]=[N-])c(=O)c2cc1OC)-c1ccc(NC(C)=O)cc1C3=O`, the GI50 in experiment [1] is > 50 µM; in experiment [2], > 50 µM; in experiment [4], > 50 µM; in [5], > 50 µM; in [6] it was 11.2 µM; in [7], > 50 µM. For the same compound, the GI50 in experiment [8], in experiment [9] and in experiment [10] was > 50 µM throughout. The TGI in experiment [1], in [2], in [4], in experiment [5], in experiment [6] and in [7] was > 50 µM throughout. For the same compound, the TGI in [8], in experiment [9] and in [10] was > 50 µM each time.

On to `CN1CCC(n2cnc(-c3ccc(F)cc3)c2-c2ccnc(Nc3ccccc3)n2)CC1`, for which the GI50 in experiment [1] is 5.18 µM; in experiment [2], 6.85 µM; in [3], 12 µM; in [4], 18.3 µM; in [5], 3.64 µM; in experiment [6], 4.14 µM. Moreover, the GI50 is 6.54 µM in [7], 11.5 µM in experiment [8], 4.77 µM in experiment [9] and 7.65 µM in experiment [10]. Besides, the TGI is 24.6 µM in experiment [1]; > 25 µM in [2]; > 25 µM in experiment [3]; > 25 µM in experiment [4]; 11.9 µM in experiment [5]; 9.43 µM in [6]. Also, the TGI was > 23 µM in experiment [7], > 25 µM in experiment [8], 12.4 µM in experiment [9] and > 25 µM in [10].

Take `CC(=O)OCCC/C(=C/c1cc2ccccc2c2ccccc12)[N+](=O)[O-]`: the GI50 is 1.38 µM in experiment [1]; 0.384 µM in [2]; 2.86 µM in [3]; 2.04 µM in [4]; 1.46 µM in experiment [5]; 1.61 µM in experiment [6]. Moreover, the GI50 in [7] is 1.54 µM; in experiment [8] it was 2.47 µM; in [9] it was 1.55 µM; in experiment [10], 1.99 µM. For the same compound, the TGI in experiment [1] is 3.7 µM; in experiment [2], 1.87 µM; in experiment [3], > 23 µM; in experiment [4] it was 5.63 µM; in [5], 3.16 µM; in [6] it was 2.96 µM. For the same compound, the TGI is 3.1 µM in [7], > 23.1 µM in experiment [8], 3.38 µM in [9] and 4.31 µM in [10].

Regarding `Fc1cccc(-c2nc(-c3c[nH]c4ncccc34)cs2)c1`, the GI50 in experiment [1] is 0.128 µM; in [2] it was 2.34 µM; in experiment [3] it was > 100 µM; in [4] it was > 100 µM; in experiment [5] it was > 100 µM; in experiment [6], > 100 µM. In addition, the GI50 in experiment [7] was > 100 µM; in [8] it was 2.95 µM; in experiment [9], 5.62 µM; in experiment [10], > 100 µM. For the same compound, the TGI is 18.6 µM in experiment [1]; > 100 µM in experiment [2]; > 100 µM in experiment [3]; > 100 µM in experiment [4]; > 100 µM in experiment [5]; > 100 µM in [6]. Further, the TGI is > 100 µM in [7], 16.7 µM in experiment [8], > 100 µM in experiment [9] and > 100 µM in [10].

With `CN1CCN(c2ccc(NC(=O)c3cncnc3Nc3ccc4c(ccn4Cc4cccc(F)c4)c3)cc2)CC1`, the GI50 in [1] was 3.54 µM; in experiment [2], 2.03 µM; in experiment [3] it was 0.922 µM; in experiment [4], 4.86 µM; in experiment [5], 0.625 µM; in experiment [6], 1.56 µM. Moreover, the GI50 in experiment [7] is 4.06 µM; in experiment [8], 3.63 µM; in [9], 0.524 µM; in experiment [10] it was 4.81 µM. Further, the TGI was determined as 8.42 µM in [1]; 8.15 µM in experiment [2]; 3.14 µM in [3]; 11.6 µM in experiment [4]; 1.2 µM in experiment [5]; 5.91 µM in experiment [6]. Besides, the TGI was 8.25 µM in experiment [7], 11.8 µM in experiment [8], 0.976 µM in experiment [9] and 11 µM in experiment [10].

Regarding `COc1cc(-c2cn(-c3ccc(F)cc3)c(=O)[nH]2)cc(OC)c1OC`, the GI50 was 79.4 µM in experiment [1]; > 100 µM in experiment [2]; > 100 µM in [3]; > 100 µM in experiment [4]; > 100 µM in [5]; > 100 µM in experiment [6]. The GI50 was > 100 µM in [7], 50.9 µM in experiment [8], > 100 µM in experiment [9] and > 100 µM in [10]. For the same compound, the TGI in [1], in [2], in experiment [3], in experiment [4], in [5] and in [6] was > 100 µM throughout. For the same compound, the TGI in experiment [7], in [8], in experiment [9] and in experiment [10] was > 100 µM in each case.

For `COc1ccccc1C(=O)Nc1ccc(Cl)c(C(=O)OC(C)C)c1`, the TGI in [1] is > 100 µM; in experiment [2], 60.1 µM; in experiment [3], > 76.5 µM; in experiment [4] it was > 100 µM; in experiment [5], > 100 µM; in [6], > 54.8 µM. For the same compound, the TGI is > 63.4 µM in experiment [7], > 100 µM in experiment [8], > 100 µM in [9] and 64.4 µM in experiment [10].

For `C=C(C)C1Cc2cc(C(C)=O)ccc2O1` (stereo unspecified), the TGI in [1], in [2], in experiment [3], in [4], in experiment [5] and in experiment [6] was > 100 µM in each case. In addition, the TGI in experiment [7], in experiment [8], in [9] and in [10] was > 100 µM in each case.

`Cn1c(=O)c2[nH]c(CCS)nc2n(C)c1=O`: the TGI in experiment [1], in [2], in experiment [3], in experiment [4], in experiment [5] and in experiment [6] was > 100 µM throughout. The TGI in experiment [7] was > 100 µM; in experiment [8] it was 99.7 µM; in experiment [9] it was > 100 µM; in experiment [10], > 100 µM.

Regarding `CCN(CC)CCC(CNc1c(C)cnc2cc(Cl)ccc12)c1ccc(Cl)c(Cl)c1` (stereo unspecified), the GI50 is 1.96 µM in [1]; 2.22 µM in experiment [2]; 2.88 µM in experiment [3]; 13.5 µM in [4]; 1.77 µM in experiment [5]; 1.82 µM in [6]. Besides, the GI50 in experiment [7] was 2.18 µM; in [8] it was 4.26 µM; in [9], 1.88 µM; in [10] it was 6.33 µM. In addition, the TGI in experiment [1] turned out to be 8.03 µM; in experiment [2], 7.08 µM; in [3] it was 10.1 µM; in experiment [4], 30.8 µM; in experiment [5], 3.4 µM; in [6], 3.26 µM. Also, the TGI turned out to be 4.77 µM in experiment [7], 23.1 µM in [8], 3.5 µM in [9] and 21.3 µM in experiment [10].

As for `COc1ccccc1CNC(=O)/C=C/c1ccc(O)c(O)c1`, the GI50 in [1] is 48.4 µM; in experiment [2] it was 43.4 µM; in experiment [4], 51.8 µM; in [5] it was 58.3 µM; in experiment [6], 56.8 µM; in experiment [7], 34.8 µM. Besides, the GI50 in experiment [8] was > 100 µM; in experiment [9], 50.3 µM; in experiment [10], 66 µM. Also, the TGI in [1], in experiment [2], in experiment [4], in [5], in experiment [6] and in experiment [7] was > 100 µM in each case. Further, the TGI in [8], in experiment [9] and in experiment [10] was > 100 µM each time.

For the origin of these results see PubChem BioAssay (NCI).
